Results published in article PMC10487316, “A high‐throughput microfluidic mechanoporation platform to enable intracellular delivery of cyclic peptides in cell‐based assays” (Bioengineering & Translational Medicine, 2023).
Where a SMILES comes first, the peptide text is derived from it. Bridges are numbered along the chain shown (N, C = ends). [ ]: non-standard residue; d: D form. dPhe(4-CF3) = N[C@H](Cc1ccc(C(F)(F)F)cc1)C(=O)O; dTrp(6-F) = N[C@H](Cc1c[nH]c2cc(F)ccc12)C(=O)O; R5 = C=CCCC[C@@](C)(N)C(=O)O; S5 = C=CCCC[C@](C)(N)C(=O)O

Experiments:
MDM2 (1–125) protein = molecular target: T1, MDM2 (1–125) protein (Homo sapiens, UniProt Q00987); test: MDM2 binding assay (fluorescence anisotropy competition); conditions: competition vs 50 nM FAM-labeled 12/1 peptide, 250 nM MDM2; heat map of Figure 5a
T1 construct: made in house
T1 sequence (Q00987 1-125): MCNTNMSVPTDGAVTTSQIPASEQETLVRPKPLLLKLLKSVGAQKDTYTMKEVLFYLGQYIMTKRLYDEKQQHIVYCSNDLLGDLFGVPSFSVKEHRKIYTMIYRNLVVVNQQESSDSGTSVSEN
Method: MDM2 protein generation and binding studies were performed as described.[17] […] The competing molecules were then titrated against the complex of the FAM‐labeled peptide and protein. Curve‐fitting was carried out using Prism 4.0 (GraphPad) to determine K D values. Readings were carried out with an Envision Multilabel Reader (PerkinElmer). […] All titrations were carried out in triplicate.

[1] = system: CellSensor p53RE-bla HCT116 cell line (p53 response element reporter); test: HCT116 p53 β-lactamase reporter gene functional assay; assay type: cell-based, human; conditions: 10 μM peptide; unprocessed vs DμVS-processed cells
Method: The CellSensor™ p53RE‐bla HCT116 cell line (K1640, Thermo Scientific) was used for functional characterization of p53 pathway activation by DμVS‐delivered peptides. Assay was performed similarly to how previously described.[17] These cells harbor a stable integration of a β‐lactamase reporter gene under control of the p53 response element. Cells were maintained in McCoy's 5A medium (16600‐082, Invitrogen) with 10% dialyzed FBS (26400‐036, Invitrogen), blasticidin (R210‐01, Invitrogen), and penicillin/streptomycin according to the manufacturer's protocol. Peptides were synthesized as previously described.[16], [17] To set up the assay, peptides were first pre‐plated in assay medium (Opti‐MEM supplemented with 0.1 mM non‐essential amino acids [11140‐050, Invitrogen], 1 mM sodium pyruvate [11360‐070, Invitrogen], and penicillin/streptomycin) without FBS on 384‐well plates (Corning 3764) or 96‐well plates (Corning 3603) using a HP D300E digital dispenser (20 μl 384‐well, 50 μl 96‐well). Maximum DMSO concentration used was 0.3% v/v. Cells were washed, resuspended with 0.05% v/v trypsin, spun down for 5 min at 300× g, and resuspended in PBS. Cells were 70‐μm strained and then brought to a final cell density of 3 × 10^6 cells/ml in PBS. Cell suspension was connected to 15 mL P‐CAP of the DμVS system, and 2 mL were used to prime the system. DμVS process was then initiated at 120 psi and 20 μL (384‐well) or 50 μL (96‐well) were dispensed to microplate in wells that were pre‐defined in the Telios software and pre‐loaded with peptides 2× in assay medium. Unprocessed cells were added to the microplate in parallel. After DμVS processing/mixing with peptide, cells were incubated at 37°C for 4 h. β‐lactamase activity was detected using the ToxBLAzer loading kit (K1095, Invitrogen) according to the manufacturer's protocol. Plates were measured using the PHERAstar FSX microplate reader with a LiveBlazer optic module (1400‐G3M‐FI‐410‐530‐460, BMG Labtech). Maximum p53 activity was defined as the β‐lactamase activity induced by 30 μM MP‐081 (meanpos). Percent activation of individual samples (S) was calculated using the following equation, where meanveh represents the mean of vehicle controls: % activation=S−meanveh/meanpos−meanveh×100
Z‐factors were calculated using the formula: Z^′=1−3σpos+3σveh/meanpos−meanveh
Meanpos and σ pos represent the mean and standard deviation, respectively, of the raw ratiometric values for 30 μM MP‐081 and meanveh and σ veh represent the mean and standard deviation of the vehicle controls. Dose–response data EC50 values were determined using the “[Agonist] versus response—Variable slope (four parameters)” algorithm in GraphPad Prism. Single concentration data for expanded peptide set were analyzed using unpaired T‐tests with false discovery rate (FDR, 1.00%) multiple comparisons correction using the two‐stage step‐up (Benjamini, Krieger, and Yekutieli) method. Data were accumulated from at least five independent experimental runs.

CC(C)C[C@H]1NC(=O)[C@@H](CC(C)C)NC(=O)[C@@](C)(NC(=O)[C@@H](CCC(=O)O)NC(=O)[C@@H](Cc2ccc(C(F)(F)F)cc2)NC(=O)[C@@H](CC(N)=O)NC(=O)[C@@H](C)NC(=O)[C@@H](Cc2ccc(O)cc2)NC(=O)[C@@H](Cc2c[nH]c3cc(F)ccc23)NC(=O)[C@@H](C)NC(=O)[C@H](N)[C@H](C)O)CCCC=CCCC[C@](C)(C(N)=O)NC1=O [MP-313, H-DThr-DAla-DTrp(6-F)-DTyr-DAla-DAsn-DPhe(4-CF3)-DGlu-S5*-DLeu-DLeu-R5*-NH2] (H-[dT][dA][dTrp(6-F)][dY][dA][dN][dPhe(4-CF3)][dE][S5][dL][dL][R5]-NH2; staple 9-12)
Kd (MDM2 (1–125) protein): 1.7 nM | p53 activation at 10 μM with and without DμVS [1]: no p53 reporter activity improvement
